Measurements as given in patent US11691972B2, “Compounds for targeted degradation of BRD9” (C4 Therapeutics, Inc., priority 2020, dated 2023).
Like-named read-outs stand apart in the source and are kept apart here.

Legend:
[1] = molecular target: hERG (Homo sapiens, UniProt Q12809); experiment: hERG
[2] = PO PK, rat; type: in vivo; conditions: for PO PK AUC(0-last) / PO PK Cmax: dose-normalised; for bioavailability / half-life: in vivo; for bioavailability: read-out: PO PK F%; for half-life: read-out: PO PK t1/2 (converted)
[3] = Hepatocyte stability, rat; type: in vitro ADME; conditions: rat hepatocytes; read-out: Hepatocyte stability, Clint scaled ws
[4] = molecular target: T1, BRD9 (Homo sapiens, UniProt Q9H8M2); experiment: HiBiT BRD9 degradation assay in 293T.166 (BRD9-HiBiT) cells; type: cell-based; set-up: endogenously expressing BRD9 with HiBiT fusion tag via CRISPR; host or cells: 293T.166 (BRD9-HiBiT), also expressing LgBiT ectopically
T1 sequence (Q9H8M2 1-597): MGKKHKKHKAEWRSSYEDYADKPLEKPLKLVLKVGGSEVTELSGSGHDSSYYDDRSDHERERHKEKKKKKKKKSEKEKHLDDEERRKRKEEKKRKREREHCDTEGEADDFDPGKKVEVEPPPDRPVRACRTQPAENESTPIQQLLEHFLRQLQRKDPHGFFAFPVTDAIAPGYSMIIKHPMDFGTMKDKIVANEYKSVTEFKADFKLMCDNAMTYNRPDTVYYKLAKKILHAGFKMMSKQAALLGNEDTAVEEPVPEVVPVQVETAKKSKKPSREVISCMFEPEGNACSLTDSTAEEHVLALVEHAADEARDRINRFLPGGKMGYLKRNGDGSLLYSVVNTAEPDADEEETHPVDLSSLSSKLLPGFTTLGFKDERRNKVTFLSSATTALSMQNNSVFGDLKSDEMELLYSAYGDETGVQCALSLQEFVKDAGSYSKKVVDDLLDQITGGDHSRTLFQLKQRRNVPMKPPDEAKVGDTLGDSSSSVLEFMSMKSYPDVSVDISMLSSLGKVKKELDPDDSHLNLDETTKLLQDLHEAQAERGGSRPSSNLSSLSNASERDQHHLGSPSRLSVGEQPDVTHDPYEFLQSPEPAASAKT
How it was run: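 293T.166 cells carrying endogenous CRISPR BRD9-HiBiT and expressing LgBiT treated 2 h at 37° C. with compounds, 11-point half-log titration from 10 μM in duplicate. Remaining BRD9 measured as lytic HiBiT luminescence; untreated cells as negative control, no-reagent wells as positive control.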

[5] = PPB, rat; type: in vitro ADME; conditions: plasma
[6] = molecular target: T1, BRD9; experiment: Western blot, in-vivo BRD9 degradation in Yamato-SS tumors; set-up: inoculated subcutaneously into BALB/c nude mice at the right flank for tumor development; from tissue; host or cells: Yamato-SS xenograft tumours in BALB/c nude mice; species or system BALB/c nude mice
Method: (§1) Yamato-SS cells were maintained in vitro until exponential growth phase and inoculated subcutaneously into BALB/c nude mice at the right flank for tumor development. Mice were treated with single dose of Compound 172 at 10 or 75 mg/kg PO. Tumor were collected at indicated time points and snap frozen until lysis. Tumors were ground and lysed in RIPA Buffer containing 2× protease/phosphatase inhibitor using a freeze grinder at 50 Hz for 5 minutes. Protein concentrations were determined by Pierce™ BCA Protein Assay Kit. Samples were diluted to appropriate concentrations and run in a western blot.
as §1, with “Yamato-SS” for “Yamato-SS cells”, “flank.” for “flank for tumor development.”, “176” for “172”, “3, 12” for “10”, “50” for “75”
FIG. 20 is a histogram reflecting quantitated bands from FIG. 19. The x axis is time measured in hours and the y axis is BRD9 remaining normalized to vehicle and vinculin measured in percentage.

[7] = Hepatocyte stability, mouse; type: in vitro ADME; conditions: mouse hepatocytes; read-out: Hepatocyte stability, Clint scaled ws
[8] = Hepatocyte stability, dog; type: in vitro ADME; conditions: dog hepatocytes; read-out: Hepatocyte stability, Clint scaled ws
[9] = PPB, dog; type: in vitro ADME; conditions: plasma
[10] = Plasma stability, human; type: in vitro ADME
[11] = IV PK, rat; type: in vivo; conditions: for IV PK AUC(0-last) / IV PK Cmax: dose-normalised; for clearance / Vd / half-life: in vivo; for clearance: read-out: IV PK CL; for Vd: read-out: IV PK Vdss; for half-life: read-out: IV PK t1/2 (converted)
[12] = PPB, human; type: in vitro ADME; conditions: plasma
[13] = test system: Yamato-SS cells; experiment: Confluence (growth) over time in Yamato-SS cells; type: cell-based, human
[14] = Table 1, 293T.166 cells, 2.0 hours, class symbols, read-out: HiBiT-Degradation 293T.166 BRD9 2.0 hours (DC50)

hERG, sequence (Q12809 whole entry): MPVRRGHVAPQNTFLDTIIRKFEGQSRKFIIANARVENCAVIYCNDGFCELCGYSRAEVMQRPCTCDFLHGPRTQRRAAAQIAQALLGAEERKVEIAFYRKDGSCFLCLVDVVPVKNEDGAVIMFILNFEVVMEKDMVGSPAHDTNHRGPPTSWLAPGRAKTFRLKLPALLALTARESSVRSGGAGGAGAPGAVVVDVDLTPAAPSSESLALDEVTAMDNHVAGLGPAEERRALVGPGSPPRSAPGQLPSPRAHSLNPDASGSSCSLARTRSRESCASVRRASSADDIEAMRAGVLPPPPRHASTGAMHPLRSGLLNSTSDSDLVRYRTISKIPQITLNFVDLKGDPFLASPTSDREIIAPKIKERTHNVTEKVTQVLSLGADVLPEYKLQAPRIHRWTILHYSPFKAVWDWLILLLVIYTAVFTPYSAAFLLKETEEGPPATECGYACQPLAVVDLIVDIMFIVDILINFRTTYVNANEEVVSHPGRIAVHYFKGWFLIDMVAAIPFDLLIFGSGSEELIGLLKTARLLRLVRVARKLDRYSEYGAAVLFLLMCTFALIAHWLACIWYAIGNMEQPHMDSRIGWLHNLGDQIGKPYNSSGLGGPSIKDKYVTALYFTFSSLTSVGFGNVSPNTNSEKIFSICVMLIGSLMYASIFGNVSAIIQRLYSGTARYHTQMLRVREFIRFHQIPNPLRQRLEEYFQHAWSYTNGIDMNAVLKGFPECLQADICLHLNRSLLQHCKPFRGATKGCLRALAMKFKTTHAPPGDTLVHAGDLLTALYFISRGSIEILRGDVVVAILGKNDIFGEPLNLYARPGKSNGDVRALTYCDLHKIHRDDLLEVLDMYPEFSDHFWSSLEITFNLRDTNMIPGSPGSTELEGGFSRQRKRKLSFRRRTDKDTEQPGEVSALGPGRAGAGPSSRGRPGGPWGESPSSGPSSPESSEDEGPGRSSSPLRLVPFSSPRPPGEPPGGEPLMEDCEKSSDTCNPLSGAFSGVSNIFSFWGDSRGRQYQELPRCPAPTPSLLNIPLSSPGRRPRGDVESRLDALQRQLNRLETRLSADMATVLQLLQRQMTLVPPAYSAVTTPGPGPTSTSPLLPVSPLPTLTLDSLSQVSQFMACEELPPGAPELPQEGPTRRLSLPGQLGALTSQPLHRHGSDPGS

Which results are given for COc1cc(-c2cn(C)c(=O)c(C)c2C)cc(OC)c1CN1CCC(N2CCN(c3ccc(NC4CCC(=O)NC4=O)cc3F)CC2)C(F)(F)C1 (single isomer, unassigned) [Compound 176, 3-[4-[4-[1-[[2,6-dimethoxy-4-(1,4,5-trimethyl-6-oxo-3-pyridyl)phenyl]methyl]-3,3-difluoro-4-piperidyl]piperazin-1-yl]-3-fluoro-anilino]piperidine-2,6-dione]?
IC50 [1]: > 30 µM; PO PK AUC(0-last) [2]: 656 (h*ng/mL)/(mg/kg); PO PK Cmax [2]: 75 (ng/mL)/(mg/kg); bioavailability [2]: 83%; half-life [2]: 5.1 h; CLint scaled [3]: 14.2 mL/min/kg; DC50 [4, 14]: < 0.1 µM; fraction unbound [5]: 0.098; in-vivo BRD9 degradation, western blot ([6]; single dose 3, 12 or 50 mg/kg PO, 1, 4, 12, 24, 48 hr, FIG. 19): time dependent in-vivo BRD9 degradation; CLint scaled [7]: 30 mL/min/kg; CLint scaled [8]: 8.6 mL/min/kg; fraction unbound [9]: 0.065; Stability (plasma) % remaining @3 hrs [10]: 67%; IV PK AUC(0-last) [11]: 771 (h*ng/mL)/(mg/kg); IV PK Cmax [11]: 439 [ng/mL]/(mg/kg); clearance [11]: 21.6 mL/min/kg; Vd [11]: 6.7 L/kg; half-life [11]: 4 h; fraction unbound [12]: 0.067; confluence as a percentage of control, single dose long term growth evaluation ([13]; BAF perturbed Yamato-SS model, various concentrations, FIG. 16): selective growth inhibition

For COc1cc(-c2cn(C)c(=O)c(C)c2C)cc(OC)c1CN1CCC(N2CCN(c3ccc(NC4CCC(=O)NC4=O)cc3F)CC2)C(F)(F)C1 (stereo not drawn) [Compound 172, 3-[4-[4-[1-[[2,6-dimethoxy-4-(1,4,5-trimethyl-6-oxo-3-pyridyl)phenyl]methyl]-3,3-difluoro-4-piperidyl]piperazin-1-yl]-3-fluoro-anilino]piperidine-2,6-dione], which IC50 [1] is on record?
Its IC50 is over 30 µM.

And the “PO PK AUC(0-last)” value [2]?
Its value is 520 (h*ng/mL)/(mg/kg).

What about the “PO PK Cmax” value [2] of the same molecule?
Its value is 92 (ng/mL)/(mg/kg).

What about the bioavailability [2] of the same molecule?
The bioavailability was 49%.

What about the half-life [2] of the same molecule?
The half-life was 4.3 h.

And the CLint scaled [3]?
The CLint scaled was 15 mL/min/kg.

What about the “BRD9 degradation (2 h), Kendo 17 h, percent” value ([4]; 2 h) of the same molecule?
Its value is 5%.

And the DC50 ([4]; 2 h, read-out: BRD9 degradation (2 h), Kendo 17 h, concentration)?
Its DC50 is 0.0034 µM.

And the DC50 [4, 14]?
The DC50 was under 0.1 µM.

And the fraction unbound [5]?
The fraction unbound was 0.083.

What about the “in-vivo BRD9 degradation, western blot” value ([6]; single dose 10 or 75 mg/kg PO, FIG. 12, not BRD7) of the same molecule?
Its value is “dose dependent in-vivo BRD9 degradation”.

And the CLint scaled [7]?
Its CLint scaled is 38 mL/min/kg.

And the CLint scaled [8]?
Its CLint scaled is 2 mL/min/kg.

What about the fraction unbound [9] of the same molecule?
The fraction unbound was 0.039.

And the “Stability (plasma) % remaining @3 hrs” value [10]?
The value was 83.4%.

What about the “IV PK AUC(0-last)” value [11] of the same molecule?
The value was 1230 (h*ng/mL)/(mg/kg).

What about the “IV PK Cmax” value [11] of the same molecule?
The value was 517 [ng/mL]/(mg/kg).

And the clearance [11]?
Its clearance is 16 mL/min/kg.

What about the Vd [11] of the same molecule?
The Vd was 7.9 L/kg.

What about the half-life [11] of the same molecule?
The half-life was 9.5 h.

What about the fraction unbound [12] of the same molecule?
Its fraction unbound is 0.088.

What about the “confluence as a percentage of control over time” value ([13]; Yamato-SS cells, FIG. 4) of the same molecule?
Its value is “growth inhibition”.
